The values that follow come from patent publication US5726189A, “Method for imaging nicotinic acetylcholinergic receptors in the brain using radiolabeled pyridyl-7-azabicyclo [2.2.1]heptanes” (priority 1996, dated 1998).

The test system of the data set is nAChRs in mouse brain. The data set can be described thus: regional distribution of [18F]FPH in mouse brain after tail vein injection. It is filed as in vivo. The procedure:
The utility of [^18 F] FPH as an agent to label, in vivo, nAChRs in mouse brain was tested. Mice received 0.4 μCi of [^18 F]FPH (sp. act >2000 mCi/μmol) by tail vein injection. The regional distribution of the tracer in brain was assessed in the absence and presence of unlabeled epibatidine. […] In in vitro assays, the Ki for unlabeled FPH against nAChRs labeled with [^3 H] epibatidine was approximately 3 pM. […] FPH would be an excellent ligand for imaging nAChRs in living human brain.

[1] abbreviates: 30 minutes post injection, tail vein, 0.4 μCi.

`[18F]c1ccc(C2CC3CCC2N3)cn1` (racemic) [[^18 F]FPH, (±)-exo-2-(2-[^18 F]fluoro-5-pyridyl)-7-azabicyclo[2.2.1]heptane]: under setting [1], the uptake in cerebellum is less than 3 % ID/g, the uptake in cortex was 6.2 % ID/g, the uptake in hippocampus is on record as 6 % ID/g and the “uptake in superior colliculus” value is recorded as 10 % ID/g. Under setting [1], this compound returned an uptake in thalamus of 11 % ID/g. Moreover, the “binding in all regions after pretreatment with unlabeled epibatidine” value (pretreatment with unlabeled epibatidine 20 μg/kg) is given as ~ 3 % ID/g.
